Columns and labels:
Plasmepsin II [1] = molecular target: T1, Plasmepsin II (Plasmodium falciparum, UniProt P46925); experiment: Inhibition of Plasmodium falciparum plasmepsin 2 incubated for 10 mins followed by DABCYL-Glu-Arg-Nle-Phe-Leu-Ser-Phe-Pro-EDANS addition and measured after 30 mins by fluorescence method
Cathepsin D = Cathepsin D (Homo sapiens, UniProt P07339); experiment: Inhibition of human liver cathepsin D using DABCYL-Glu-Arg-Nle-Phe-Leu-Ser-Phe-Pro-EDANS as substrate by FRET assay
Plasmepsin II [2] = molecular target: T1, Plasmepsin II; experiment: Inhibition of Plasmodium falciparum plasmepsin 2 using DABCYL-Glu-Arg-Nle-Phe-Leu-Ser-Phe-Pro-EDANS as substrate by FRET assay
Plasmepsin II [3] = molecular target: T1, Plasmepsin II; experiment: Inhibition of Plasmodium falciparum plasmepsin 2 using fluorescently labeled peptide substrate by fluorescence method
Plasmepsin 4 [4] = molecular target: T2, Plasmepsin 4 (Plasmodium falciparum, UniProt Q17SB2); experiment: Inhibition of Plasmodium falciparum plasmepsin 4 using fluorescently labeled peptide substrate by fluorescence method
Plasmepsin II [5] = molecular target: T1, Plasmepsin II; experiment: Inhibition of Plasmodium falciparum plasmepsin 2 by FRET assay
Plasmepsin 4 [6] = molecular target: T2, Plasmepsin 4; experiment: Inhibition of Plasmodium falciparum plasmepsin 4 by FRET assay
Plasmepsin II [7] = molecular target: T1, Plasmepsin II; experiment: Inhibition of Plasmodium falciparum plasmepsin 2 using Dabcyl-ERNIef:LSFP-EDANS as substrate incubated for 40 mins by FRET assay
Plasmepsin II [8] = molecular target: T1, Plasmepsin II; experiment: Inhibition of Plasmodium falciparum plasmepsin 2 preincubated for 30 mins followed by DABCYL-Glu-Arg-Nle-Phe-Leu-Ser-Phe-Pro-EDANS addition measured every minute for 8 to 15 mins by FRET assay

T2 sequence (Q17SB2 whole entry): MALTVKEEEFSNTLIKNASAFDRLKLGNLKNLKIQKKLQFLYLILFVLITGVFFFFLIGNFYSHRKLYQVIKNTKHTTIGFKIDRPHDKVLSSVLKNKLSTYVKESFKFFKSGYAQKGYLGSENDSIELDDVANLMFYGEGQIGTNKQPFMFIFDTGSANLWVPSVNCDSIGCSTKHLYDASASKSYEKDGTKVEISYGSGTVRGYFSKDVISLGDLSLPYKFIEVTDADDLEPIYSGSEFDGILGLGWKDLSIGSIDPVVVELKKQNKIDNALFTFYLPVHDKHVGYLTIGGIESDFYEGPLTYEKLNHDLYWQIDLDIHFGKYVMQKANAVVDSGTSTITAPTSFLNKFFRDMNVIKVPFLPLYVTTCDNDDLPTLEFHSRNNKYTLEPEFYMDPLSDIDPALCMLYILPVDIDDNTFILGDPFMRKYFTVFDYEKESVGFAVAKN
T1 sequence (P46925 whole entry): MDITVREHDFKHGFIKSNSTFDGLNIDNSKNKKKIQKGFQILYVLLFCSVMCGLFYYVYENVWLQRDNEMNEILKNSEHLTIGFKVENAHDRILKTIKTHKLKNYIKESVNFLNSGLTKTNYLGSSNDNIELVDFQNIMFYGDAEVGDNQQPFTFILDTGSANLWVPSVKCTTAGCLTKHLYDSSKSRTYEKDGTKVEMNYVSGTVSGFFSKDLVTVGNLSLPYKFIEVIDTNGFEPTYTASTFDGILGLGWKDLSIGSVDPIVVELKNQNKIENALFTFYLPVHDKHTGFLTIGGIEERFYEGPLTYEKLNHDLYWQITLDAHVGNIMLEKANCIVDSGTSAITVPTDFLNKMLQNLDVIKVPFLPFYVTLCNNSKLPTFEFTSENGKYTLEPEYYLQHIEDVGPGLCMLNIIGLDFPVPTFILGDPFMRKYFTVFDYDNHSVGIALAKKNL
Chain of Cathepsin D (P07339 65-162 limits assumed): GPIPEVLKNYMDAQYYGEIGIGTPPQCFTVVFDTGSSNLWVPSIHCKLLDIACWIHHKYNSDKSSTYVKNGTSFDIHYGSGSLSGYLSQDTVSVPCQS
Chain of Cathepsin D (P07339 169-412 limits assumed): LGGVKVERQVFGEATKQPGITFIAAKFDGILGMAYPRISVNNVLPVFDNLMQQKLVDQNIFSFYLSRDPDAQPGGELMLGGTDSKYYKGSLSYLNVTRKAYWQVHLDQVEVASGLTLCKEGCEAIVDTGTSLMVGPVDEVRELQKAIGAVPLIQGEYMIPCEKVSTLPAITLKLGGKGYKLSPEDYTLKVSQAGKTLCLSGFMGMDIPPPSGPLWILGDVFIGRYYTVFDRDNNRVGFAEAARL

`O=C(Nc1cccc(C(F)(F)F)c1)Nc1ccc(Oc2ccc(Cl)cc2Cl)cc1S(=O)(=O)O` gave a Ki (Plasmepsin II [1]) of 50 to 680 nM.
In the case of `c1cc(NNc2ccncc2)ccn1`, the IC50 (Cathepsin D) is reported as 1000 to 2500 nM and the IC50 (Plasmepsin II [2]) is reported as 1000 to 2500 nM.
`CCCCCc1ccc(S(=O)(=O)C2C3CCC(N3)C2NCc2ccc3ccccc3c2)cc1` (stereo not given) showed an IC50 (Plasmepsin II [3]) of 680 nM and an IC50 (Plasmepsin 4 [4]) of 240 nM.
In the case of `CCCCCCCCc1ccc(S(=O)(=O)C2C3CCC(N3)C2NCc2ccc3ccccc3c2)cc1` (stereo not given), the IC50 (Plasmepsin II [3]) is reported as 70 nM and the IC50 (Plasmepsin 4 [4]) is reported as 430 nM.
For `O=S(=O)(c1ccc(CCCCC2CCC2)cc1)C1C2CCC(N2)C1NCc1ccc2ccccc2c1` (stereo not given), the IC50 (Plasmepsin II [3]) was 170 nM and the IC50 (Plasmepsin 4 [4]) was 180 nM.
Compound `c1ccc2c(CCOc3cc4c(cc3CCCSc3nc5ccccc5s3)C3CCC4N3)cccc2c1` (stereo not given) has an IC50 (Plasmepsin II [5]) of 4 µM and an IC50 (Plasmepsin 4 [6]) of 33 µM.
Work on `CCc1ccc(C(=O)N(Cc2ccc(-c3ccccc3)cc2)C2CCN(Cc3ccccc3)CC2)cc1` yielded an IC50 (Plasmepsin II [7]) of 15600 nM.
With `COc1cccc(OCCc2ccc(C3=C(C(=O)N(C)CCc4ccccc4)C4CN(C(C)=O)CC(C3)N4)cc2)c1` (stereo not given) the IC50 (Plasmepsin II [7]) was 10 to 100 nM.
Compound `CC(=O)N1CC2CC(c3ccc(CCOc4cccc(Br)c4)cc3)=C(C(=O)N(C)CCc3ccccc3)C(C1)N2` (stereo not given) has an IC50 (Plasmepsin II [7]) of 10 to 100 nM.
For `CC(=O)N1CC2CC(c3ccc(CCOc4ccccc4Cl)cc3)=C(C(=O)N(C)CCc3ccccc3)C(C1)N2` (stereo not given), the IC50 (Plasmepsin II [7]) was 100 to 10000 nM.
`CC(C)CCCCc1ccc(S(=O)(=O)C2C3CCC(N3)C2NCc2ccc3ccccc3c2)cc1` (stereo not given) was tested, and the IC50 (Plasmepsin II [3]) was 30 nM and the IC50 (Plasmepsin 4 [4]) was 90 nM.
For `c1ccc(NNc2ccccc2)cc1` [HYDRAZOBENZENE], the IC50 (Cathepsin D) was 1000 to 2500 nM and the IC50 (Plasmepsin II [2]) was 1000 to 2500 nM.
`O=C(Nc1ccc(Cl)c(Cl)c1)Nc1cc(Cl)ccc1Oc1cc(Cl)c(Cl)cc1S(=O)(=O)O` showed a Ki (Plasmepsin II [1]) of 50 to 680 nM.
`O=C(C1=C(c2ccc(CCCOc3cc(F)ccc3Br)cc2)CCNC1)N(Cc1ccccc1Cl)C1CC1` gave an IC50 (Plasmepsin II [7]) of less than 100 nM.
`O=C(Nc1ccc(Cl)c(Cl)c1)Nc1cc(Cl)c(Oc2ccc(Cl)cc2)cc1S(=O)(=O)O` gave a Ki (Plasmepsin II [1]) of 50 to 680 nM.
Compound `CCCCCc1ccc(Cn2nnc(CCN(CC)CC)c2-c2ccc(-c3ccc(OC)cc3)cc2)cc1` has an IC50 (Plasmepsin II [8]) of 5.2 µM.
`NNC(=O)C(c1ccccc1)c1ccccc1` showed an IC50 (Cathepsin D) of 1000 to 2500 nM and an IC50 (Plasmepsin II [2]) of 1000 to 2500 nM.
For `c1ccc2c(CCOc3cc4c(cc3OCCSc3nc5ccccc5s3)C3CCC4N3)cccc2c1` (stereo not given), the IC50 (Plasmepsin II [5]) was 3 µM and the IC50 (Plasmepsin 4 [6]) was 15 µM.
In the case of `COc1cc2c(cc1OCCc1cccc3ccccc13)C1CCC2N1` (stereo not given), the IC50 (Plasmepsin II [5]) is reported as 24 µM and the IC50 (Plasmepsin 4 [6]) is reported as 81 µM.
With `NNC(=O)c1ccccc1[N+](=O)[O-]` the IC50 (Cathepsin D) was 1000 to 2500 nM and the IC50 (Plasmepsin II [2]) was 1000 to 2500 nM.
With `CCCCCCCc1ccc(S(=O)(=O)C2C3CCC(N3)C2NCc2ccc3ccccc3c2)cc1` (stereo not given) the IC50 (Plasmepsin II [3]) was 50 nM and the IC50 (Plasmepsin 4 [4]) was 210 nM.
`O=S(=O)(c1ccc(CCCCC2CCCC2)cc1)C1C2CCC(N2)C1NCc1ccc2ccccc2c1` (stereo not given) gave an IC50 (Plasmepsin II [3]) of 190 nM and an IC50 (Plasmepsin 4 [4]) of 210 nM.
`CCCCOc1ccc(C(=O)N(Cc2ccc(-c3ccccc3)cc2)C2CCN(Cc3ccccc3)CC2)cc1` gave an IC50 (Plasmepsin II [7]) of 1700 nM.
With `CC(=O)N1CC2CC(c3ccc(CCOc4cccc(OC(F)(F)F)c4)cc3)=C(C(=O)N(C)CCc3ccccc3)C(C1)N2` (stereo not given) the IC50 (Plasmepsin II [7]) was 10 to 100 nM.
Work on `CCCCCc1ccc(-n2nnc(CCN(CC)CC)c2-c2ccc(-c3ccc(OC)cc3)cc2)cc1` yielded an IC50 (Plasmepsin II [8]) of 0.6 µM.
Compound `CCN(CC)CCc1nnn(-c2ccc(C)cc2)c1-c1ccc(-c2ccc(OC)cc2)cc1` has an IC50 (Plasmepsin II [8]) greater than 200 µM.
`CCCCCCCCCc1ccc(S(=O)(=O)C2C3CCC(N3)C2NCc2ccc3ccccc3c2)cc1` (stereo not given) was tested, and the IC50 (Plasmepsin II [3]) was 150 nM and the IC50 (Plasmepsin 4 [4]) was 1360 nM.
With `CCCC(=O)NN` the IC50 (Cathepsin D) was 1000 to 2500 nM and the IC50 (Plasmepsin II [2]) was 1000 to 2500 nM.
`CC(=O)N1CC2CC(c3ccc(CCOc4cc(F)ccc4Br)cc3)=C(C(=O)N(C)CCc3ccccc3)C(C1)N2` (stereo not given) was tested, and the IC50 (Plasmepsin II [7]) was less than 10 nM.
Compound `O=C(Nc1ccc(Oc2ccc(Cl)cc2)c(Cl)c1)Nc1cc(C(F)(F)F)c(Cl)cc1S(=O)(=O)O` has a Ki (Plasmepsin II [1]) of 50 to 680 nM.

— ChEMBL document CHEMBL4354799, “Exploiting Structural Dynamics To Design Open-Flap Inhibitors of Malarial Aspartic Proteases” (J Med Chem, 2019)
